Assay results reported in ChEMBL document CHEMBL1201862, “PubChem BioAssay data set” (2004).
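Briefly, cells in 96-well plates were exposed to five compound concentrations for 48 h, and endpoints were estimated by linear interpolation. The concentration for 50% growth inhibition is given as GI50.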 Active and inactive are the calls of the source. Cut-off read from the data, not from the text of the source: active = GI50 up to about 1.1 µM and inactive = higher.

What was measured:
Test in all cases: NCI-60 cell line screen, 48 h
IGROV-1 = system: IGROV-1
NCI-H460 = system: NCI-H460
OVCAR-4 = system: OVCAR-4
NCI-H23 = system: NCI-H23
HOP-92 = system: HOP-92
CAKI-1 = system: CAKI-1
SNB-75 = system: SNB-75
TK-10 = system: TK-10
SW-620 = system: SW-620
SK-MEL-5 = system: SK-MEL-5
OVCAR-8 = system: OVCAR-8
COLO 205 = system: COLO 205
UACC-62 = system: UACC-62
SK-MEL-28 = system: SK-MEL-28
HL-60 = system: HL-60
786-0 = system: 786-0
SF-295 = system: SF-295

Measured: GI50

COc1ccc(-c2cc(O)c3cc4c(cc3n2)OCO4)c(OC)c1
inactive: IGROV-1 > 100 µM | NCI-H460 40.2 µM | OVCAR-4 71.1 µM | NCI-H23 70.3 µM | HOP-92 82 µM | CAKI-1 > 100 µM | SNB-75 4.4 µM | TK-10 > 100 µM | SW-620 47.3 µM | SK-MEL-5 26.5 µM | OVCAR-8 96.6 µM | COLO 205 46.2 µM | UACC-62 28.3 µM | SK-MEL-28 32.9 µM | HL-60 20 µM | 786-0 > 100 µM

CC1(O)CC2C(CC1SCCO)C2(C)C (stereo not drawn)
inactive: IGROV-1 > 100 µM | NCI-H460 > 100 µM | OVCAR-4 > 100 µM | NCI-H23 > 100 µM | HOP-92 > 100 µM | SNB-75 > 100 µM | TK-10 > 100 µM | SK-MEL-5 > 100 µM | OVCAR-8 > 100 µM | COLO 205 > 100 µM | SF-295 > 100 µM | SK-MEL-28 > 100 µM | HL-60 > 100 µM | 786-0 > 100 µM

N/N=C1/C(=O)N(c2ccc(Cl)cc2)C(=O)C(=O)C1c1nc2ccccc2s1 (stereo not drawn)
inactive: IGROV-1 > 100 µM | NCI-H460 > 100 µM | OVCAR-4 > 100 µM | NCI-H23 > 100 µM | HOP-92 > 100 µM | CAKI-1 > 68.2 µM | SNB-75 > 65.6 µM | TK-10 > 100 µM | SW-620 > 100 µM | SK-MEL-5 > 100 µM | OVCAR-8 > 100 µM | COLO 205 > 100 µM | UACC-62 > 100 µM | SF-295 > 100 µM | SK-MEL-28 > 100 µM | HL-60 > 100 µM | 786-0 > 100 µM

CN/N=C(/CC(=O)c1sc(-n2nc(-c3ccccc3)cc2-c2ccccc2)nc1C)C(=O)Nc1ccc(Cl)c(Cl)c1
inactive: IGROV-1 61 µM | NCI-H460 57.3 µM | OVCAR-4 52.6 µM | NCI-H23 23.7 µM | HOP-92 14.1 µM | CAKI-1 14.7 µM | SW-620 57.5 µM | SK-MEL-5 18 µM | OVCAR-8 51.1 µM | COLO 205 28.9 µM | UACC-62 26.5 µM | SF-295 25.3 µM | SK-MEL-28 55.1 µM | 786-0 39.3 µM

IC[P+]1(c2ccccc2)CCCC1
inactive: IGROV-1 > 100 µM | NCI-H460 31.9 µM | NCI-H23 39.4 µM | SNB-75 26.2 µM | TK-10 47.3 µM | SW-620 > 100 µM | SK-MEL-5 19.1 µM | OVCAR-8 32.4 µM | COLO 205 14 µM | UACC-62 > 100 µM | SF-295 40.1 µM | SK-MEL-28 50 µM | HL-60 45.1 µM | 786-0 > 100 µM

COC(=O)C1=C(C)N(NC(N)=O)C(C)(O)C12CCOC2=O (stereo not drawn)
inactive: IGROV-1 > 100 µM | NCI-H460 > 100 µM | OVCAR-4 > 100 µM | NCI-H23 > 100 µM | HOP-92 > 100 µM | CAKI-1 > 100 µM | TK-10 > 100 µM | SW-620 > 100 µM | OVCAR-8 > 100 µM | COLO 205 > 100 µM | UACC-62 > 10 µM | SF-295 > 100 µM | SK-MEL-28 > 100 µM | HL-60 > 100 µM | 786-0 > 100 µM

Cn1cc(C2(C)CC(C)(C)c3c2n(C)c2ccccc32)c2ccccc21 (stereo not drawn)
inactive: IGROV-1 > 100 µM | NCI-H460 > 100 µM | NCI-H23 95.3 µM | HOP-92 > 100 µM | CAKI-1 > 100 µM | SNB-75 > 100 µM | TK-10 > 100 µM | SW-620 > 100 µM | SK-MEL-5 69.3 µM | OVCAR-8 > 100 µM | COLO 205 > 100 µM | UACC-62 > 100 µM | SF-295 > 100 µM | SK-MEL-28 > 100 µM | 786-0 > 100 µM

COC(=O)CCc1cccnc1/C=N/O
inactive: IGROV-1 > 100 µM | NCI-H460 27.4 µM | OVCAR-4 > 100 µM | NCI-H23 > 100 µM | HOP-92 > 100 µM | CAKI-1 > 100 µM | SNB-75 > 100 µM | TK-10 55.7 µM | SW-620 87.5 µM | SK-MEL-5 > 100 µM | OVCAR-8 > 100 µM | COLO 205 > 100 µM | UACC-62 > 100 µM | SF-295 > 100 µM | SK-MEL-28 > 100 µM | HL-60 > 100 µM | 786-0 > 100 µM

O=C(CN1CCCCC1)N1CCc2c([nH]c3ccccc23)C1c1cccnc1 (stereo not drawn)
inactive: IGROV-1 > 100 µM | NCI-H460 > 100 µM | OVCAR-4 > 100 µM | NCI-H23 > 100 µM | HOP-92 34.6 µM | CAKI-1 > 100 µM | SNB-75 > 100 µM | TK-10 > 100 µM | SW-620 > 100 µM | SK-MEL-5 > 100 µM | OVCAR-8 > 100 µM | UACC-62 > 100 µM | SF-295 > 100 µM | SK-MEL-28 > 100 µM | HL-60 > 100 µM | 786-0 > 100 µM
